Assay results as given in patent US20140011799A1 (Bristol-Myers Squibb Company, priority 2012, published 2014).

Biological target: T1, hepatic lipase (HL) (Homo sapiens, UniProt P11150)
T1 construct: made in house; host or cells: COS cells (conditioned medium, partially purified)
T1 sequence (P11150 23-499): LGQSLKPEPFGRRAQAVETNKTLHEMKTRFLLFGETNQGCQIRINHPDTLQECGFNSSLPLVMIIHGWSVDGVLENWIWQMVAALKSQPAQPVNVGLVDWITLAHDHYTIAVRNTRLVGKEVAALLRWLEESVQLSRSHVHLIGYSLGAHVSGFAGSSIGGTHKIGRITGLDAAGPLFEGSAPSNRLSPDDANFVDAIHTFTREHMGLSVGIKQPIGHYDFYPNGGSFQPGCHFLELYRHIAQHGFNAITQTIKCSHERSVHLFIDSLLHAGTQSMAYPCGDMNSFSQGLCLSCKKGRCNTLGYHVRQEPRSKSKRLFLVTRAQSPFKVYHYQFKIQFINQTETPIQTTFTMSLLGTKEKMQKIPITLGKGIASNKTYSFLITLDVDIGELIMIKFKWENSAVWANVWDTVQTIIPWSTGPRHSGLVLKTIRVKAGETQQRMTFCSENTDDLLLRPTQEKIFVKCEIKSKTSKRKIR
Test: Hepatic lipase (HL) enzymatic assay, fluorescent substrate A10070 in DMPG vesicles
Format: biochemical
Details: HL partially purified from conditioned media of COS cells; compound preincubated 30 min at 37° C; read-out: HL IC50
Protocol: Endothelial lipase (EL) and hepatic lipase (HL) activities were measured using a fluorescent substrate, A10070, (Invitrogen, CA) doped into an artificial vesicle containing DMPG (Avanti Polar Lipids) as the excipient. Vesicles were prepared by combining 571 μL of 29 mM DMPG in a 1:1 mixture of MeOH and CHCl3 with 2000 μL of 1 mM A10070 in a 1:1 mixture of MeOH and CHCl3. The mixture was dried under nitrogen in multiple vials then resuspended in 20 mL total volume of 50 mM HEPES pH 8.0 buffer containing 50 mM NaCl and 0.2 mM EDTA. The sample was allowed to sit at room temperature for 15 min and then was sonicated 3×4 mins on ice with a Branson Sonicator using duty cycle 1. This preparation provides vesicles with a mole fraction of 0.11 for the FRET substrate.
The enzymatic assay was measured using 384-well white Optiplates. Each well contained 20 μL of assay buffer (50 mM HEPES pH 8.0, 50 mM NaCl and 1 mM CaCl2) and 0.25 μL of a DMSO solution containing a compound of interest. EL or HL (10 μL) was added and allowed to incubate with the compound for 30 min at 37° C. The source of EL was conditioned media obtained from HT-1080 cells that were transformed using RAGE technology (Athersys) to overexpress endogenous EL, and HL was partially purified from conditioned media obtained from COS cells overexpressing HL. The reaction was started by the addition of 10 μL of a 1:10 dilution of vesicles. The final total reaction volume was […]. The reaction rates were measured on a Gemini plate reader with an excitation wavelength of 490 nm and an emission wavelength of 530 nm. Readings were taken over a period of 60 minutes, and the slope between 300 and 900 secs of the readout was used to calculate the rate of the reaction.

IC50 [nM]	SMILES
178	NCCS(=O)(=O)C(c1nnc(CNS(N)(=O)=O)o1)c1nc2ccc(-c3ccc(C(=O)N4CCOCC4)cc3)cc2s1 (stereo not shown) [Example 183, N-{[5-([(2-Aminoethyl)sulfonyl]{6-[4-(4-morpholinylcarbonyl)phenyl]-1,3-benzothiazol-2-yl}methyl)-1,3,4-oxadiazol-2-yl]methyl}sulfuric diamide]
37	CS(=O)(=O)C(c1nnc(CNS(N)(=O)=O)o1)c1nc2ccc(-c3cccc(C(=O)N4CCC4)c3)cc2s1 (stereo not shown) [Example 264, N-{[5-({6-[3-(azetidine-1-carbonyl)phenyl]-1,3-benzothiazol-2-yl} (methanesulfonyl)methyl)-1,3,4-oxadiazol-2-yl]methyl}aminosulfonamide]
396	Cc1cc(-c2ccc3nc(C(c4nnc(CNS(N)(=O)=O)o4)S(C)(=O)=O)sc3c2)n(C)n1 (stereo not shown) [Example 118, N-[(5-{[6-(1,3-dimethyl-1H-pyrazol-5-yl)-1,3-benzothiazol-2-yl](methylsulfonyl)methyl}-1,3,4-oxadiazol-2-yl)methy] sulfuric diamide]

Biological target: T2, Endothelial lipase (EL) (Homo sapiens, UniProt Q9Y5X9)
T2 construct: HT-1080 cells that were transformed using RAGE technology (Athersys) to overexpress endogenous EL; endogenous in cells; conditioned medium used
T2 sequence (Q9Y5X9 21-500): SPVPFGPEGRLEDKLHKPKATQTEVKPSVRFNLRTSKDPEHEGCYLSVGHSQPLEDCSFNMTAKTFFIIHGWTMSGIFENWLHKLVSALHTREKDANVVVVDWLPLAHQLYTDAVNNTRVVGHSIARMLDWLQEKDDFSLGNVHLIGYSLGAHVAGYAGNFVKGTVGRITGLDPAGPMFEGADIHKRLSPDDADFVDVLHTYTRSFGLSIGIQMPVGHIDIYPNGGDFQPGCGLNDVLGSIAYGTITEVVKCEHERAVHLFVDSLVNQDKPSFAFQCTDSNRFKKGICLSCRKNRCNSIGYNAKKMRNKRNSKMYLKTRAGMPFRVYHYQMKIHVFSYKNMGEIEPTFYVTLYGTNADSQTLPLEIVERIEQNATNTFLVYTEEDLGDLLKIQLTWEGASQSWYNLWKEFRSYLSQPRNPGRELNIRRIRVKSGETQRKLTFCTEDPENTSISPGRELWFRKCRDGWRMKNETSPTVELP
Test: Endothelial lipase (EL) enzymatic assay, fluorescent substrate A10070 in DMPG vesicles
Format: biochemical
Details: EL from conditioned media of HT-1080 cells; compound preincubated 30 min at 37° C; read-out: EL IC50
In short: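 Compounds were preincubated with enzyme for 30 min at 37° C before FRET-substrate vesicles (A10070 in DMPG, 0.11 mole fraction) were added. Reaction rates were obtained from the 300–900 sec slope of fluorescence at 490/530 nm.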

IC50 [nM]	SMILES
14	NCCS(=O)(=O)C(c1nnc(CNS(N)(=O)=O)o1)c1nc2ccc(-c3ccc(C(=O)N4CCOCC4)cc3)cc2s1 (stereo not shown) [Example 183, N-{[5-([(2-Aminoethyl)sulfonyl]{6-[4-(4-morpholinylcarbonyl)phenyl]-1,3-benzothiazol-2-yl}methyl)-1,3,4-oxadiazol-2-yl]methyl}sulfuric diamide]
19	CS(=O)(=O)C(c1nnc(CNS(N)(=O)=O)o1)c1nc2ccc(-c3cccc(C(=O)N4CCC4)c3)cc2s1 (stereo not shown) [Example 264, N-{[5-({6-[3-(azetidine-1-carbonyl)phenyl]-1,3-benzothiazol-2-yl} (methanesulfonyl)methyl)-1,3,4-oxadiazol-2-yl]methyl}aminosulfonamide]
18	Cc1cc(-c2ccc3nc(C(c4nnc(CNS(N)(=O)=O)o4)S(C)(=O)=O)sc3c2)n(C)n1 (stereo not shown) [Example 118, N-[(5-{[6-(1,3-dimethyl-1H-pyrazol-5-yl)-1,3-benzothiazol-2-yl](methylsulfonyl)methyl}-1,3,4-oxadiazol-2-yl)methy] sulfuric diamide]
58	CN(C)C(=O)CCc1nnc(C(c2nc3ccc(-c4ccccc4)cc3s2)S(=O)(=O)Cc2ccccc2)o1 (stereo not shown) [Example 41, 3-(5-((benzylsulfonyl)(6-phenylbenzo[d]thiazol-2-yl)methyl)-1,3,4-oxadiazol-2-yl)-N,N-dimethylpropanamide]
< 10	O=C1NC(=O)C(Cc2nnc(C(c3nc4c(F)cc(-c5ccccc5)cc4s3)S(=O)(=O)Cc3ccccc3)o2)S1 (stereo not shown) [Example 93, 5-((5-((benzylsulfonyl) (4-fluoro-6-phenyl-benzo[d]thiazol-2-yl)methyl)-1,3,4-oxadiazol-2-yl)methyl)thiazolidine-2,4-dione]
< 10	C[C@]1(Cc2nnc(C(c3nc4ccc(-c5ccccc5)cc4s3)S(C)(=O)=O)o2)OC(=O)NC1=O (stereo partly drawn) [Example 42, (5R)-5-Methyl-5-((5-((methylsulfonyl)(6-phenylbenzo[d]thiazol-2-yl)methyl)-1,3,4-oxadiazol-2-yl)methyl)oxazolidine-2,4-dione]
< 10	CC1(Cc2nnc(C(c3nc4ccc(-c5ccccc5)cc4s3)S(C)(=O)=O)o2)NC(=O)N(CC(F)(F)F)C1=O (single isomer, unassigned; isomer a) [Example 27, 5-methyl-5-((5-(methylsulfonyl(6-phenylbenzo[d]thiazol-2-yl)methyl)-1,3,4-oxadiazol-2-yl)methyl)-3-(2,2,2-trifluoroethyl)imidazolidine-2,4-dione (Isomer A)]
19	CC1(Cc2nnc(C(c3nc4ccc(-c5ccnc(F)c5)cc4s3)S(=O)(=O)Cc3ccccc3)o2)NC(=O)NC1=O (single isomer, unassigned; isomer b) [Example 10, 5-((5-((benzylsulfonyl)(6-(2-fluoropyridin-4-yl)benzo[d]thiazol-2-yl)methyl)-1,3,4-oxadiazol-2-yl)methyl)-5-methylimidazolidine-2,4-dione (Isomer B)]
< 10	NS(=O)(=O)NCc1nnc(C(c2nc3ccc(-c4ccccc4)cc3s2)S(=O)(=O)Cc2ccccc2F)o1 (stereo not shown) [Example 51, N-((5-(((2-fluorobenzyl)sulfonyl)(6-phenyl-1,3-benzothiazol-2-yl)methyl)-1,3,4-oxadiazol-2-yl)methyl)sulfamide]
< 10	CC1(Cc2nnc(C(c3nc4ccc(-c5ccnc(F)c5)cc4s3)S(C)(=O)=O)o2)NC(=O)NC1=O (single isomer, unassigned; isomer a) [Example 13, 5-((5-((6-(2-fluoropyridin-4-yl)benzo[d]thiazol-2-yl)(methylsulfonyl)methyl)-1,3,4-oxadiazol-2-yl)methyl)-5-methylimidazolidine-2,4-dione (Isomer A)]
16	CS(=O)(=O)C(c1nnc(CC2NC(=O)NC2=O)o1)c1nc2ccc(-c3ccccc3)cc2s1 (stereo not shown) [Example 30, 5-((5-((methylsulfonyl) (6-phenyl-1,3-benzothiazol-2-yl)methyl)-1,3,4-oxadiazol-2-yl)methyl)-2,4-imidazolidinedione]
< 10	NS(=O)(=O)NCc1nnc(C(c2nc3ccc(-c4ccc(Cl)cc4)cc3s2)S(=O)(=O)Cc2ccccc2)o1 (stereo not shown) [Example 126, N-((5-((benzylsulfonyl)(6-(4-chlorophenyl)-1,3-benzothiazol-2-yl)methyl)-1,3,4-oxadiazol-2-yl)methyl) sulfamide]
< 10	CS(=O)(=O)C(c1nnc(CS(N)(=O)=O)o1)c1nc2ccc(-c3ccccc3)cc2s1 (stereo not shown) [Example 89, (5-((Methylsulfonyl)(6-phenylbenzo[d]thiazol-2-yl)methyl)-1,3,4-oxadiazol-2-yl)methanesulfonamide]
30	CC1(Cc2nnc(C(c3nc4ccc(-c5ccc(C(=O)N6CCOCC6)cc5)cc4s3)S(=O)(=O)Cc3ccccc3)o2)NC(=O)NC1=O (stereo not shown) [Example 5, 5-((5-((benzylsulfonyl)(6-(4-(morpholine-4-carbonyl)phenyl)benzo[d]thiazol-2-yl)methyl)-1,3,4-oxadiazol-2-yl)methyl)-5-methylimidazolidine-2,4-dione]
195	CC(C)C(=O)NCc1nnc(C(c2nc3ccc(-c4ccccc4)cc3s2)S(C)(=O)=O)o1 (stereo not shown) [Example 88, N-((5-((Methylsulfonyl)(6-phenylbenzo[d]thiazol-2-yl)methyl)-1,3,4-oxadiazol-2-yl)methyl)isobutyramide]
65	CC1(Cc2nnc(C(c3nc4ccc(-c5ccc(C(=O)N6CCOCC6)cc5)cc4s3)S(C)(=O)=O)o2)NC(=O)NC1=O (single isomer, unassigned; isomer b) [Example 15, 5-methyl-5-((5-((methylsulfonyl)(6-(4-(morpholine-4-carbonyl)phenyl)benzo[d]thiazol-2-yl)methyl)-1,3,4-oxadiazol-2-yl)methyl)imidazolidine-2,4-dione (Isomer B)]

SMILES	IC50 [nM]
COc1nc(-c2nnc(C(c3nc4ccc(-c5ccccc5)cc4s3)S(=O)(=O)CCC(F)(F)F)o2)c(O)c(=O)[nH]1 (stereo not shown) [Example 44, 5-Hydroxy-2-methoxy-6-(5-((6-phenylbenzo[d]thiazol-2-yl)((3,3,3-trifluoropropyl)sulfonyl)methyl)-1,3,4-oxadiazol-2-yl)pyrimidin-4(3H)-one]	77
NS(=O)(=O)NCc1nnc(C(c2nc3ccc(-c4ccccc4)cc3s2)S(=O)(=O)Cc2cccc(Cl)c2)o1 (stereo not shown) [Example 73, N-((5-(((3-chlorobenzyl)sulfonyl)(6-phenyl-1,3-benzothiazol-2-yl)methyl)-1,3,4-oxadiazol-2-yl)methyl)sulfamide]	< 10
NS(=O)(=O)Cc1nnc(C(c2nc3ccc(-c4ccccc4)cc3s2)S(=O)(=O)Cc2ccccc2)o1 (stereo not shown) [Example 37, (5-((benzylsulfonyl)(6-phenylbenzo[d]thiazol-2-yl)methyl)-1,3,4-oxadiazol-2-yl)methanesulfonamide]	< 10
